The results in this text go back to patent US8318935B2, “Organic compounds 75074” (Novartis AG, priority 2007, dated 2012).

The IC50 is the point on the concentration scale where inhibition reaches its midpoint. The low end stands for greater potency, the high end for weaker potency.

Counter-ions that a name gives are not always drawn.

The target in this assay is T1, epithelial sodium channel (ENaC) (Homo sapiens, UniProt P37088+P51168+P51170).
T1 construct: host or cells: primary Human Bronchial Epithelial cells (HBECs), air-liquid interface culture
T1 sequence (P37088 1-669): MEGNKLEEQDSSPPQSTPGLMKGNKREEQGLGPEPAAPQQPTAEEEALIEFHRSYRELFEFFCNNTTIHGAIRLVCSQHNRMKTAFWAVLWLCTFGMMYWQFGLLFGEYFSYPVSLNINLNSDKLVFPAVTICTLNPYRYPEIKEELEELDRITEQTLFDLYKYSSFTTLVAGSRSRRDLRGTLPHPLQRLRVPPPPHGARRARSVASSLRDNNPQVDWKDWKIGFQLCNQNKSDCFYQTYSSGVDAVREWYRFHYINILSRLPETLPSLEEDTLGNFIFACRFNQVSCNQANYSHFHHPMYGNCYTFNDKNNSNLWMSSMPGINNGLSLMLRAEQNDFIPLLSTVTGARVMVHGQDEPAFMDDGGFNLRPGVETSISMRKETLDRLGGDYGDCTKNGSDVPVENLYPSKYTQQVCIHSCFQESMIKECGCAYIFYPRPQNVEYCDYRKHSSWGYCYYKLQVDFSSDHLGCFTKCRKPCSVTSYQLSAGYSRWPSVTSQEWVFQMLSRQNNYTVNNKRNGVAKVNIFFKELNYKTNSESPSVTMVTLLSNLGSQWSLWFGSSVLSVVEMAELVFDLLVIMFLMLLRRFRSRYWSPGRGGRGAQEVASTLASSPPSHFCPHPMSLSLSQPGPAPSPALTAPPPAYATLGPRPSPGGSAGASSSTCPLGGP
T1 sequence (P51168 1-640): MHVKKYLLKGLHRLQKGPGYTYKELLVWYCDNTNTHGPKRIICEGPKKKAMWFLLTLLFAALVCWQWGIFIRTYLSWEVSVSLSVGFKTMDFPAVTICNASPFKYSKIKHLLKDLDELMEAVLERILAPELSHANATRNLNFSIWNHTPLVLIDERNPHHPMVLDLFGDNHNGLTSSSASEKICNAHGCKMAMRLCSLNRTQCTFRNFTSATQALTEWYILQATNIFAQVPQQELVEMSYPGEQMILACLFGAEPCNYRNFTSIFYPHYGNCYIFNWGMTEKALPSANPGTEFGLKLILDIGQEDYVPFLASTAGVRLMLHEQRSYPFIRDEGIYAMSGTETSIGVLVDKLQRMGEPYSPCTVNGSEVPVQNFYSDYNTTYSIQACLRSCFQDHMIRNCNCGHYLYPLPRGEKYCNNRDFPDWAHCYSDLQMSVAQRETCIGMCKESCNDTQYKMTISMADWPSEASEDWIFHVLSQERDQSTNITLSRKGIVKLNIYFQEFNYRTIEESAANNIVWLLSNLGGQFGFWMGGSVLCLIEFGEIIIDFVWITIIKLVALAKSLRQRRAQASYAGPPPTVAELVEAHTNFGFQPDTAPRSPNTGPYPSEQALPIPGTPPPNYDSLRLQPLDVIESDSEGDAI
T1 sequence (P51170 1-649): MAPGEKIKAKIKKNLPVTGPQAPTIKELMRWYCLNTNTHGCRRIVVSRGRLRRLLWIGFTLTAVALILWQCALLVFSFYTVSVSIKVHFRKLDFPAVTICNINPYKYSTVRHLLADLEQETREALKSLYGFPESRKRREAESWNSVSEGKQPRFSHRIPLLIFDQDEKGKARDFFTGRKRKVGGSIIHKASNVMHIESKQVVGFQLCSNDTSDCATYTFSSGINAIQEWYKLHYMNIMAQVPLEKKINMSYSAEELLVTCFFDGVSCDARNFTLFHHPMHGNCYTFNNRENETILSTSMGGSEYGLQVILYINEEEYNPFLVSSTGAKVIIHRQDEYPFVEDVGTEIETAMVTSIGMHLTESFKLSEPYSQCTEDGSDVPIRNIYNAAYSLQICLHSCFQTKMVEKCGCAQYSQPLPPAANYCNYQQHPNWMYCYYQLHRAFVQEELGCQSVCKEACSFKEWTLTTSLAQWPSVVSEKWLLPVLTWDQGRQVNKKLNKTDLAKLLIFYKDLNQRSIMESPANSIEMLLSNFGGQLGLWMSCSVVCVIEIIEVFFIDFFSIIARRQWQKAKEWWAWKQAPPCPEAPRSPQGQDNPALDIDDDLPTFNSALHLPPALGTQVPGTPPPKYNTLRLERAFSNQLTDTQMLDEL
The experiment in a line: Short circuit current (ISC) measurements in human bronchial epithelial cells: inhibition of the amiloride-sensitive ISC (ENaC blockade). It is filed as cell-based. Particulars: Human Bronchial Epithelial cells (HBECs) at air-liquid interface, Ussing chamber, compound added to apical chamber. The protocol: Human Bronchial Epithelial cells (HBECs) (Cambrex) were cultured under air-liquid interface conditions to provide a well differentiated mucociliary phenotype.
HBECs were cultured using a modification of the method described by Gray and colleagues (Gray et al., 1996). Cells were seeded in plastic T-162 flasks and were grown in bronchial epithelial cell growth medium (BEGM; Cambrex) supplemented with bovine pituitary extract (52 μg/ml), hydrocortisone (0.5 μg/ml), human recombinant epidermal growth factor (0.5 ng/ml), epinephrine (0.5 μg/ml), transferrin (10 μg/ml), insulin (5 μg/ml), retinoic acid (0.1 μg/ml), triiodothyronine ([…]), gentamycin (50 μg/ml) and amphotericin B (50 ng/ml). Medium was changed every 48 hours until cells were 90% confluent. Cells were then passaged and seeded (8.25×10^4 cells/insert) on polycarbonate Snapwell inserts (Costar) in differentiation media containing 50% DMEM in BEGM with the same supplements as above but without triiodothyronine and a final retinoic acid concentration of 50 nM (all-trans retinoic acid). Cells were maintained submerged for the first 7 days in culture, after which time they were exposed to an apical air interface for the remainder of the culture period. At this time, media was changed to DMEM:F12 media containing 2% v/v Ultroser G for the remainder of culture. Amphotericin B was removed from all media 3 feeds prior to use in the Ussing Chambers. Cells were used between days 7 and 21 after establishment of the apical-air interface. At all stages of culture, cells were maintained at 37° C. in 5% CO2 in an air incubator.
Short Circuit Current (ISC) Measurements
Snapwell inserts were mounted in Vertical Diffusion Chambers (Costar) and were bathed with continuously gassed Ringer solution (5% CO2 in O2; pH 7.4) maintained at 37° C. containing (in mM): 120 NaCl, 25 NaHCO3, 3.3 KH2PO4, 0.8 K2HPO4, 1.2 CaCl2, 1.2 MgCl2, and 10 glucose. The solution osmolarity was between 280 and 300 mOsmol/kg H2O for all physiological salt solutions used. Cells were voltage clamped to 0 mV (model EVC4000; WPI). RT was measured by applying a 1- or 2-mV pulse at 30-s intervals and calculating RT by Ohm's law. Data were recorded using a PowerLab workstation (ADInstruments).
Test compounds were prepared as a 10 mM stock solution in DMSO (95%). Serial 3-fold dilutions were freshly prepared in an appropriate vehicle (distilled H2O or Ringers solution). The initial concentration was added to the apical chamber as a 1000× concentrate in 5 μl, resulting in a final 1× concentration the 5 ml volume of the Ussing chamber. Subsequent additions of compound were added in a 3.3 μl volume of the 1000× serially diluted stock solution. At the completion of the concentration-response experiment, amiloride (10 μM) was added into the apical chamber to enable the total amiloride-sensitive current to be measured. An amiloride control IC50 was established at the start of each experiment.
Results are expressed as the mean % inhibition of the amiloride-sensitive ISC. Concentration-response curves were plotted and IC50 values generated using GraphPad Prism 3.02. Cell inserts were typically run in duplicate and the IC50 calculated on the mean % inhibition data.
Compound `N/C(=N\C(=O)c1nc(Cl)c(N)nc1N)NC1CCN(C(=O)NCCCCNC(=O)N2CCC(N/C(N)=N/C(=O)c3nc(Cl)c(N)nc3N)CC2)CC1` [Example 23, N,N′-(1,1′-(Butane-1,4-diylbis(azanediyl))bis(oxomethylene)bis(piperidine-4,1-diyl))bis(azanediyl)bis(aminomethan-1-yl-1-ylidene)bis(3,5-diamino-6-chloropyrazine-2-carboxamide) hydrobromide] gave an IC50 of 1.6 nM. With `N=C(NC(=O)c1nc(Cl)c(N)nc1N)NC1CCN(C(=O)Nc2ccc(NC(=O)N3CCC(NC(=N)NC(=O)c4nc(Cl)c(N)nc4N)CC3)cc2)CC1` [Example 2, N,N′-(1,1′-(1,4-phenylenebis(azanediyl))bis(oxomethylene)bis(piperidine-4,1-diyl))bis(azanediyl)bis(iminomethylene)bis(3,5-diamino-6-chloropyrazine-2-carboxamide)hydrobromide], it took 1.5 nM to reach half-maximal inhibition (IC50). The IC50 values of the last two compounds are within 1.5-fold of each other. Consider `N=C(NC(=O)c1nc(Cl)c(N)nc1N)NC1CCN(C(=O)c2ccc(C(=O)N3CCC(NC(=N)NC(=O)c4nc(Cl)c(N)nc4N)CC3)cc2)CC1` [Example 4, N,N′-(1,1′-(1,4-phenylene)bis(oxomethylene)bis(piperidine-4,1-diyl))bis(azanediyl)bis(iminomethylene)bis(3,5-diamino-6-chloropyrazine-2-carboxamide)hydrochloride], for which the IC50 is 10 nM.

Regarding `CCCCN(CCCC)CCCNc1nc(N2CCC(NC(=N)NC(=O)c3nc(Cl)c(N)nc3N)CC2)nc(N2CCC(NC(=N)NC(=O)c3nc(Cl)c(N)nc3N)CC2)n1` [Example 13, N,N′-(1,1′-(6-(3-(dibutylamino)propylamino)-1,3,5-triazine-2,4-diyl)bis(piperidine-4,1-diyl))bis(azanediyl)bis(iminomethylene)bis(3,5-diamino-6-chloropyrazine-2-carboxamide) trifluoroacetate], the IC50 came out at 1 nM.

In the case of `N=C(NC(=O)c1nc(Cl)c(N)nc1N)NC1CCN(c2ncnc(N3CCC(NC(=N)NC(=O)c4nc(Cl)c(N)nc4N)CC3)n2)CC1` [Example 7, N,N′-(1,1′-(1,3,5-triazine-2,4-diyl)bis(piperidine-4,1-diyl))bis(azanediyl)bis(iminomethylene)bis(3,5-diamino-6-chloropyrazine-2-carboxamide)hydrochloride], the IC50 stood at 6 nM. This IC50 is about 6-fold higher than that of the compound before.
